Experiment [1] has as its target T1, aromatase (Rattus norvegicus, UniProt P22443).
T1 construct: Immature female Wistar rats weighing 120 g were injected subcutaneously; from tissue; host or cells: whole animal: immature female Wistar rats primed with PMSG (endogenous, mainly ovarian, aromatase by own knowledge)
T1 sequence (P22443 1-508): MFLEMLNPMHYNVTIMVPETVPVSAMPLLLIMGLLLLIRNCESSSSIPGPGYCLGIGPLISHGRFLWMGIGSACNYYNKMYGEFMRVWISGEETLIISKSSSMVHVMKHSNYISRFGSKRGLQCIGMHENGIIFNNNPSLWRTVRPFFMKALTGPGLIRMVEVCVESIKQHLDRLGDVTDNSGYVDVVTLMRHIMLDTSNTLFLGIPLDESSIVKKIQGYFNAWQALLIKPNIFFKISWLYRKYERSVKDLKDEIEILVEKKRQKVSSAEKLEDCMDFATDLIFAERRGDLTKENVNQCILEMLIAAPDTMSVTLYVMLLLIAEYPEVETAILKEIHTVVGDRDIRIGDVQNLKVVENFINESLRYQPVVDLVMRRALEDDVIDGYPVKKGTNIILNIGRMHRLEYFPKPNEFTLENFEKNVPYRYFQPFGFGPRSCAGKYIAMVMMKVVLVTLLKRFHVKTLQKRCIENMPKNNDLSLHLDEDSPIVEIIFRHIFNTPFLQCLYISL
Kind of experiment: In vivo inhibition of the aromatase activity (plasma estradiol in PMSG-injected immature female rats). More on the design: species or system Wistar rats. The settings on record: read-out: Aromatase in vivo % inhibition at 1 mg/kg. As to the method:
Immature female Wistar rats weighing 120 g were injected subcutaneously with 200 I.U. of pregnant mare's serum gonadotropin (PMSG). Ninety hours later, 1 mg/kg of the test compound dissolved in 0.5 ml 20% polyethyleneglycol in water was administered by oral gavage. Control animals received 20% polyethyleneglycol only. Two hours following drug or placebo administration the rats were killed by decapitation and trunk blood was collected on heparine. Plasma estradiol concentrations were measured by standard radio-immunological procedures. […]

The target of experiment [2] is T2, aromatase (Homo sapiens, UniProt P11511).
T2 construct: from tissue; host or cells: human placental microsomes
T2 sequence (P11511 1-503): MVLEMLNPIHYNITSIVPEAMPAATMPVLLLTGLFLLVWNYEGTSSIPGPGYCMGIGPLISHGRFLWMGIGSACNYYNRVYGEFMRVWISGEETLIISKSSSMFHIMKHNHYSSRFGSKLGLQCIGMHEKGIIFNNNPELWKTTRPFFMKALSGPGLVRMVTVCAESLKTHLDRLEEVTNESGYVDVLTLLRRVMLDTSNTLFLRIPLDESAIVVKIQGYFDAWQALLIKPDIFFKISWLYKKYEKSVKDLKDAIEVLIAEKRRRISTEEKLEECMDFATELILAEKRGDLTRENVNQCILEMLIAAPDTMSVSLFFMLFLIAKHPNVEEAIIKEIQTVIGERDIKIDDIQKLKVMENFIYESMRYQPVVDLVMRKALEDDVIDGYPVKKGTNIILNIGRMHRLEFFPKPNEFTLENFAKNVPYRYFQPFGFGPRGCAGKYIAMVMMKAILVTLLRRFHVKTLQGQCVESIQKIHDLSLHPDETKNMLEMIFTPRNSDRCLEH
Kind of experiment: In vitro inhibition of the aromatase activity test (conversion of 1,2[3H]-androstenedione into estrone and estradiol, human placental microsomes). It counts as biochemical. The settings on record: 30 min at 37°C, concentration required to obtain 50% inhibition of the estrogen synthesis, read-out: Aromatase in vitro IC₅₀. As for the experimental part: Human placental microsomes were diluted in potassium phosphate buffer (0.1M, pH 7.4) to give about 50% conversion of androgens to estrogens (protein content : about 0.5 mg). Four ml human placental microsomes were incubated in a final volume of 5 ml with 0.2 µCi 1,2[³H]-androstenedione, 2 µg androstenedione and 5 µl of test compound and/or dimethylsulfoxide (DMSO). […] The reaction was initiated by the addition of androstenedione and proceeded for 30 min at 37°C. During the incubation period, the mixtures were gassed with air. In this assay, aromatization of androstenedione results in the production of [3H]-H₂O which is isolated by extracting the samples with chloroform to remove the free steroid.

The mark [3] stands for this setting: 1 mg/kg by oral gavage, immature female Wistar rats 90 h after PMSG, plasma estradiol two hours after administration, relative to controls.

Structures can show the parent of a compound that is named as a salt. Where two headings read alike, the source gives them in different places.

As to `CC(C)COn1nnc2ccc(C3CCCc4cncn43)cc21` (stereo not shown) [Compound 6], the inhibition at 1 mg/kg at aromatase [1] (setting [3]) came to 86%. The IC50 on aromatase [2] came out at 0.0592 µM.

As to `C#CCOn1nnc2ccc(C3CCCc4cncn43)cc21` (stereo not shown) [Compound 14], at aromatase [1] (setting [3]), the inhibition at 1 mg/kg came out at 80%. The IC50 at aromatase [2] was found to be 0.0295 µM.

`CCn1nnc2ccc(C3CCCc4cncn43)cc21` (stereo not shown) [Compound 26, 1-ethyl-6-(5,6,7,8-tetrahydroimidazo[1,5-a]pyridin-5-yl)-1H-benzotriazole monohydrochloride]: the inhibition at 1 mg/kg at aromatase [1] (setting [3]) was found to be 93%. The IC50 at aromatase [2] is 0.054 µM.

In the case of `c1cc2nnn(C3CCCC3)c2cc1C1CCCc2cncn21` (stereo not shown) [Compound 30], the inhibition at 1 mg/kg at aromatase [1] (setting [3]) stood at 93%. Also, the IC50 on aromatase [2] was found to be 0.0423 µM.

Regarding `C=CCOn1nnc2ccc(C3CCCc4cncn43)cc21` (stereo not shown) [Compound 5], the inhibition at 1 mg/kg on aromatase [1] (setting [3]) was found to be 95%. In addition, the IC50 at aromatase [2] worked out at 0.0279 µM.

With `C=C(C)COn1nnc2ccc(C3CCCc4cncn43)cc21` (stereo not shown) [Compound 12], the inhibition at 1 mg/kg at aromatase [1] (setting [3]) came out at 85%. Moreover, at aromatase [2], the IC50 amounted to 0.0252 µM.

In the case of `N#CCCCCOn1nnc2ccc(C3CCCc4cncn43)cc21` (stereo not shown) [Compound 18], the inhibition at 1 mg/kg at aromatase [1] (setting [3]) amounted to 88%. For the same molecule, the IC50 on aromatase [2] came out at 0.0346 µM.

In the case of `CCCOn1nnc2ccc(C3CCCc4cncn43)cc21` (stereo not shown) [Compound 3], on aromatase [1] (setting [3]), the inhibition at 1 mg/kg stood at 92%. Further, at aromatase [2], the IC50 was found to be 0.0295 µM.

In the case of `OCCOn1nnc2ccc(C3CCCc4cncn43)cc21` (stereo not shown) [Compound 21], on aromatase [1] (setting [3]), the inhibition at 1 mg/kg worked out at 88%. In addition, the IC50 on aromatase [2] was less than 1 µM.

Take `CCC(C)On1nnc2ccc(C3CCCc4cncn43)cc21` (stereo not shown) [Compound 20]: the inhibition at 1 mg/kg at aromatase [1] (setting [3]) was 87%. Also, the IC50 on aromatase [2] is 0.0393 µM.

Take `CC(C)Cn1nnc2ccc(C3CCCc4cncn43)cc21` (stereo not shown) [Compound 33]: the inhibition at 1 mg/kg at aromatase [1] (setting [3]) was 96%. Further, the IC50 on aromatase [2] was determined as 0.046 µM.

Consider `CCCCn1nnc2ccc(C3CCCc4cncn43)cc21` (stereo not shown) [Compound 24], for which the inhibition at 1 mg/kg on aromatase [1] (setting [3]) came out at 89%. In addition, the IC50 on aromatase [2] was 0.0317 µM.

Regarding `c1cc2nnn(OCC3CC3)c2cc1C1CCCc2cncn21` (stereo not shown) [Compound 8, 1-(cyclopropylmethoxy)-6-(5,6,7,8-tetrahydroimidazo[1,5-a]pyridin-5-yl)-1H-benzotriazole mononitrate], the inhibition at 1 mg/kg at aromatase [1] (po) was found to be 87%. The IC50 on aromatase [2] was determined as 0.0319 µM.

For the molecule `CCCn1nnc2ccc(C3CCCc4cncn43)cc21` (stereo not shown) [Compound 31], the inhibition at 1 mg/kg at aromatase [1] (setting [3]) turned out to be 96%. Besides, at aromatase [2], the IC50 was 0.0435 µM.

`c1cc2nnn(C3CCCCC3)c2cc1C1CCCc2cncn21` (stereo not shown) [Compound 35]: at aromatase [1] (setting [3]), the inhibition at 1 mg/kg was determined as 98%. Besides, the IC50 at aromatase [2] is 0.041 µM.

For `Cn1nnc2ccc(C3CCCc4cncn43)cc21` (stereo not shown) [Compound 23], the inhibition at 1 mg/kg on aromatase [1] (setting [3]) turned out to be 93%. Further, on aromatase [2], the IC50 amounted to 0.0898 µM.

`CC(C)n1nnc2ccc(C3CCCc4cncn43)cc21` (stereo not shown) [Compound 25]: the inhibition at 1 mg/kg at aromatase [1] (setting [3]) was 91%. The IC50 on aromatase [2] stood at 0.0556 µM.

In the case of `CCOn1nnc2ccc(C3CCCc4cncn43)cc21` (stereo not shown) [Compound 4], the inhibition at 1 mg/kg on aromatase [1] (setting [3]) worked out at 94%. Besides, the IC50 on aromatase [2] is 0.0375 µM.

Consider `N#Cc1ccc(COn2nnc3ccc(C4CCCc5cncn54)cc32)cc1` (stereo not shown) [Compound 2], for which, on aromatase [1] (setting [3]), the inhibition at 1 mg/kg stood at 96%. For the same molecule, at aromatase [2], the IC50 was 0.0442 µM.

Take `CCCCOn1nnc2ccc(C3CCCc4cncn43)cc21` (stereo not shown) [Compound 10]: at aromatase [1] (setting [3]), the inhibition at 1 mg/kg was found to be 88%. In addition, the IC50 on aromatase [2] amounted to 0.0317 µM.

For the molecule `CCCCCCn1nnc2ccc(C3CCCc4cncn43)cc21` (stereo not shown) [Compound 27], the inhibition at 1 mg/kg on aromatase [1] (setting [3]) came out at 86%. For the same molecule, the IC50 on aromatase [2] stood at 0.0254 µM.

For `COn1nnc2ccc(C3CCCc4cncn43)cc21` (stereo not shown) [Compound 9], on aromatase [1] (setting [3]), the inhibition at 1 mg/kg amounted to 89%. For the same molecule, the IC50 on aromatase [2] turned out to be 0.057 µM.

Take `CC(C)(C)n1nnc2ccc(C3CCCc4cncn43)cc21` (stereo not shown) [Compound 32]: the inhibition at 1 mg/kg on aromatase [1] (setting [3]) was 95%. At aromatase [2], the IC50 came to 0.054 µM.

These data come from patent publication EP0426225A2, “(6,7-dihydro-5H-pyrrolo[1,2-c]-imidazol-5-yl)- and (5,6,7,8-tetrahydroimidazo[1,5-a]pyridin-5-yl) substituted 1H-benzotriazole derivatives” (JANSSEN PHARMACEUTICA N.V., priority 1989, dated 1991).
